Key:
[1] = target: T1, CK2α2β2 holoenzyme (Homo sapiens, UniProt P68400); experiment: Olig2 phosphorylation assay (CK2β-dependent protein substrate); type: biochemical; conditions: 50 μM compound; GST-Olig-2, CK2α, increasing CK2β
T1 construct: made in house; host or cells: Escherichia coli (CK2α)
Procedure: For Olig2 phosphorylation assay, GST-Olig2 fusion protein (3.7 μg) was incubated with 200 nM CK2α, in the absence or presence of 50 μM compound 1 and increasing concentrations of CK2β. Samples were analyzed by SDS PAGE and subjected to autoradiography. Phosphoproteins were quantified by densitometry scanning. For eIF2 peptide phosphorylation assay, the CK2β-dependent peptide substrate (600 μM) was incubated with CK2α (40–50 nM) and increasing concentrations of compound 1 or/and CK2β.
Fig. S3. Compound 1 inhibits CK2β-dependent phosphorylation of Olig2 transcription factor and CK2β-dependent autophosphorylation. (a) CK2α (200 nM) was incubated with increasing concentrations of CK2β in the absence or presence of compound 1 (50 μM) followed by the addition of GST-Olig2 (3.7 μg), [γ^32P]-ATP (100 μM, 1 μCi) and MgCl2 (10 mM). Samples were analyzed by SDS PAGE and subjected to autoradiography. Left and right parts of the image are from the same gel (see Supplementary Fig. S16). (b) ^32P incorporated into GST-Olig2 was determined by densitometry scanning and is expressed as arbitrary units; (c) CK2β (300 nM) was incubated with increasing concentrations of compound 1, 10 μM [γ^32P] […] Phosphorylated proteins were separated by SDS/PAGE and analyzed by autoradiography (c) or Coomassie Blue staining (d); ^32P incorporation into CK2β was quantified and expressed as arbitrary units (e). […]

[2] = system: panel of 45 recombinant protein kinases; experiment: Kinase selectivity profiling, whole panel; type: biochemical, human; conditions: focused selectivity panel of 45 kinases, 100 μM
Procedure: Kinase selectivity of compound 1 was assessed using a panel of 45 recombinant protein kinases. The assays were performed at 10 μM ATP in the presence of 100 μM inhibitor using the Kinase profiler panel service (Millipore). Inhibition, expressed as the percent of activity determined in the absence of inhibitor, was calculated from the residual activity measured in the presence of 100 μM inhibitor.
Fig. S4. Kinase selectivity profile of compound 1 on a panel of 45 different protein kinases. The assays were performed at 10 μM ATP in the presence of 100 μM compound 1 using the Upstate Kinase Profiler Panel Service (Millipore). Residual activity in presence of 100 μM compound 1 are depicted in (a) and a graphical representation of the inhibition percentage in the presence of 100 μM compound 1 is shown in (b).

[3] = system: CK2β-depleted MCF10A cells (ΔCK2β); experiment: Cell growth inhibition in CK2β-depleted cells (IncuCyte); type: cell-based, human; conditions: 50 μM; ΔCK2β vs WT MCF10A
Procedure: Cells grown on 96-well flat-bottomed plates (Corning Falcon) were tracked using an Essen IncuCyte Zoom live-cell microscopy instrument, an automated live cell imager with high-throughput capabilities and built-in data analysis. Experiments were conducted at 37 °C and 5% CO2. The software incorporated into the IncuCyte Zoom was used to analyze the images.
MCF10A and MDA-MB231 cells were seeded into 96-well plates at a density (1 × 10^4 and 2 × 10^4 cells/well, respectively) and allowed to attach overnight. Bright field images were captured every 3 h for the duration of the experiment. The detection software was calibrated specifically for MCF10A and MDA-MB231 to ensure accurate distinction of cells from empty space. Cell proliferation data were obtained by the cell confluence increment in each of the treatments and expressed as percentage relative to that of control cells.
Fig. S9. […] (a) MCF10A cells were incubated with increasing concentrations of 6 for 24 h. (b) Inset: western blot analysis of CK2 subunits in parental MCF10A cells (WT) or CK2β knockdown MCF10A cells (∆CK2β). Uncropped blots are shown in Supplementary Fig. S16. MCF10A WT (r,p) or MCF10A ∆CK2β (○,●) were incubated with DMSO (r,○) or 50 μM 6 (p,●) for the indicated time. Cell growth was monitored using an Essen IncuCyte Zoom live-cell microscopy incubator. Images were captured every 15 min for the duration of the experiment. […]

T1 sequence (P68400 whole entry): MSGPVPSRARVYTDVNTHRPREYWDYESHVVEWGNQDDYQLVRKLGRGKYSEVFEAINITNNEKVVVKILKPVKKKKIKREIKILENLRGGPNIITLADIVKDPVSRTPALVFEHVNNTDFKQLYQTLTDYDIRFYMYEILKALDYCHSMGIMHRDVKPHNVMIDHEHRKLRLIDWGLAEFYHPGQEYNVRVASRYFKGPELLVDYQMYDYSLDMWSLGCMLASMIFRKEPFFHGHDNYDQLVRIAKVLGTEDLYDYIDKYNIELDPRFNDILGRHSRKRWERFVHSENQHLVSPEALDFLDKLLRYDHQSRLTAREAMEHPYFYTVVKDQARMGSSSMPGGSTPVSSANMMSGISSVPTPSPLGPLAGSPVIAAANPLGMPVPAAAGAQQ

SMILES | decrease in Olig-2 phosphorylation [1] | Gini coefficient [2] | growth inhibition in CK2β-depleted cells compared with WT cells [3]
COc1[nH]c2ccc(F)cc2c1C(=O)OCC1CCN(CCNS(C)(=O)=O)CC1 [Compound 1] | ~ 50% | 0.81 | 
COc1[nH]c2ccc(F)cc2c1C(=O)OCC1CCN(CCNS(=O)(=O)c2ccccc2)CC1.Cl [Compound 6] |  |  | twice more pronounced
